Source: patent US10131652B2, “Pyrimidinyloxy benzene derivatives as herbicides” (E. I. DU PONT DE NEMOURS AND COMPANY, priority 2014, dated 2018)

Tests used:
Format in all cases: in vivo
[1] = system: giant foxtail (Setaria faberii); assay: Test D pre-/postemergence plant response
Outline: (§1)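 Preemergence: seeds in loam/sand blend treated with test chemicals in non-phytotoxic solvent with surfactant; postemergence: plants at 2–18 cm (1- to 4-leaf stage) in peat-based medium sprayed likewise. Greenhouse 13 to 15 days, then visual rating vs controls, 0 (no effect) to 100 (complete control).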

[2] = system: soybean (Glycine max); assay: Test D pre-/postemergence plant response
Outline: as §1

[3] = system: morningglory (Ipomoea coccinea); assay: Test D pre-/postemergence plant response
Outline: as §1

[4] = system: corn (Zea mays); assay: Test D pre-/postemergence plant response
Outline: as §1

[5] = system: waterhemp (common waterhemp, Amaranthus rudis); assay: Test D pre-/postemergence plant response
Outline: as §1

[6] = system: pigweed (Amaranthus retroflexus); assay: Test D pre-/postemergence plant response
Outline: as §1

[7] = system: velvetleaf (Abutilon theophrasti); assay: Test D pre-/postemergence plant response
Outline: as §1

[8] = system: Italian ryegrass (Lolium multiflorum); assay: Test D pre-/postemergence plant response
Outline: as §1

[9] = system: barnyardgrass (Echinochloa crus-galli); assay: Test D pre-/postemergence plant response
Outline: as §1

[10] = system: lambsquarters (Chenopodium album); assay: Test D pre-/postemergence plant response
Outline: as §1

[11] = system: blackgrass (Alopecurus myosuroides); assay: Test D pre-/postemergence plant response
Outline: as §1

[12] = system: large (Lg) crabgrass (Digitaria sanguinalis); assay: Test D pre-/postemergence plant response
Outline: as §1

[13] = system: kochia (Kochia scoparia); assay: Test B pre-/postemergence plant response
Outline: (§2)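 Ratings reflect visual injury versus untreated controls, from 0 for no effect to 100 for complete control, assessed roughly 10 days after treatment. Formulation: non-phytotoxic solvent mix with surfactant; pre- and postemergence sprays on plants grown in loam soil and sand.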

[14] = system: ragweed (common ragweed, Ambrosia elatior); assay: Test B pre-/postemergence plant response
Outline: as §2

[15] = system: Italian ryegrass (Lolium multiflorum); assay: Test B pre-/postemergence plant response
Outline: as §2

[16] = Postemergence, 16 g ai/ha, scale 0 to 100 (0 no effect, 100 complete control)
[17] = Postemergence, 31 g ai/ha, scale 0 to 100 (0 no effect, 100 complete control)
[18] = Postemergence, 62 g ai/ha, scale 0 to 100, 0 no effect, 100 complete control
[19] = Postemergence, 125 g ai/ha, scale 0 to 100, 0 no effect, 100 complete control
[20] = Preemergence, 16 g ai/ha, scale 0 to 100 (0 no effect, 100 complete control)
[21] = Preemergence, 31 g ai/ha, scale 0 to 100 (0 no effect, 100 complete control)
[22] = Preemergence, 62 g ai/ha, scale 0 to 100 (0 no effect, 100 complete control)
[23] = 31 g ai/ha, Postemergence, 0 to 100 scale, 0 no effect, 100 complete control
[24] = 31 g ai/ha, Preemergence, 0 to 100 scale where 0 is no effect and 100 is complete control
[25] = 125 g ai/ha, postemergence, 0 to 100 scale, 0 no effect, 100 complete control

Structure (SMILES): FC(F)c1cc(-c2c(Cl)cccc2Oc2ncc(Cl)cn2)on1 [Compound 120]
- Foxtail, Giant plant response rating [1, 16]: 10
- Foxtail, Giant plant response rating [1, 17]: 10
- Plant response rating, Foxtail, Giant [1, 18]: 15
- Plant response rating, Foxtail, Giant [1, 19]: 25
- Plant response rating (scale 0 to 100), Foxtail, Giant ([1]; Preemergence, 125 g ai/ha): 100
- Plant response rating, Foxtail, Giant [1, 20]: 95
- Plant response rating, Foxtail, Giant [1, 21]: 98
- Plant response rating, Foxtail, Giant [1, 22]: 98
- Soybean plant response rating [2, 16]: 90
- Soybean plant response rating [2, 17]: 70
- Plant response rating, Soybean [2, 18]: 70
- Plant response rating, Soybean [2, 19]: 95
- Plant response rating (scale 0 to 100), Soybean ([2]; Preemergence, 125 g ai/ha): 50
- Plant response rating, Soybean [2, 20]: 75
- Plant response rating, Soybean [2, 21]: 10
- Plant response rating, Soybean [2, 22]: 60
- Morningglory plant response rating [3, 16]: 85
- Morningglory plant response rating [3, 17]: 98
- Plant response rating, Morningglory [3, 18]: 80
- Plant response rating, Morningglory [3, 19]: 100
- Plant response rating (scale 0 to 100), Morningglory ([3]; Preemergence, 125 g ai/ha): 75
- Plant response rating, Morningglory [3, 20]: 0
- Plant response rating, Morningglory [3, 21]: 30
- Plant response rating, Morningglory [3, 22]: 60
- Corn plant response rating [4, 16]: 15
- Corn plant response rating [4, 17]: 15
- Plant response rating, Corn [4, 18]: 10
- Plant response rating, Corn [4, 19]: 15
- Plant response rating (scale 0 to 100), Corn ([4]; Preemergence, 125 g ai/ha): 75
- Plant response rating, Corn [4, 20]: 0
- Plant response rating, Corn [4, 21]: 35
- Plant response rating, Corn [4, 22]: 25
- Waterhemp plant response rating [5, 16]: 90
- Waterhemp plant response rating [5, 17]: 100
- Plant response rating, Waterhemp [5, 18]: 100
- Plant response rating, Waterhemp [5, 19]: 100
- Plant response rating (scale 0 to 100), Waterhemp ([5]; Preemergence, 125 g ai/ha): 100
- Plant response rating, Waterhemp [5, 20]: 100
- Plant response rating, Waterhemp [5, 21]: 100
- Plant response rating, Waterhemp [5, 22]: 100
- Pigweed plant response rating [6, 16]: 98
- Pigweed plant response rating [6, 17]: 100
- Plant response rating, Pigweed [6, 18]: 100
- Plant response rating, Pigweed [6, 19]: 100
- Plant response rating (scale 0 to 100), Pigweed ([6]; Preemergence, 125 g ai/ha): 100
- Plant response rating, Pigweed [6, 20]: 100
- Plant response rating, Pigweed [6, 21]: 100
- Plant response rating, Pigweed [6, 22]: 100
- Velvetleaf plant response rating [7, 16]: 70
- Velvetleaf plant response rating [7, 17]: 85
- Plant response rating, Velvetleaf [7, 18]: 100
- Plant response rating, Velvetleaf [7, 19]: 100
- Plant response rating (scale 0 to 100), Velvetleaf ([7]; Preemergence, 125 g ai/ha): 100
- Plant response rating, Velvetleaf [7, 20]: 50
- Plant response rating, Velvetleaf [7, 21]: 75
- Plant response rating, Velvetleaf [7, 22]: 100
- Ryegrass, Italian plant response rating [8, 16]: 5
- Ryegrass, Italian plant response rating [8, 17]: 5
- Plant response rating, Ryegrass, Italian [8, 18]: 10
- Plant response rating, Ryegrass, Italian [8, 19]: 50
- Plant response rating (scale 0 to 100), Ryegrass, Italian ([8]; Preemergence, 125 g ai/ha): 90
- Plant response rating, Ryegrass, Italian [8, 20]: 5
- Plant response rating, Ryegrass, Italian [8, 21]: 35
- Plant response rating, Ryegrass, Italian [8, 22]: 90
- Barnyardgrass plant response rating [9, 16]: 10
- Barnyardgrass plant response rating [9, 17]: 15
- Plant response rating, Barnyardgrass [9, 18]: 25
- Plant response rating, Barnyardgrass [9, 19]: 40
- Plant response rating (scale 0 to 100), Barnyardgrass ([9]; Preemergence, 62 g ai/ha): 90
- Plant response rating (scale 0 to 100), Barnyardgrass ([9]; Preemergence, 125 g ai/ha): 100
- Plant response rating, Barnyardgrass [9, 20]: 25
- Plant response rating, Barnyardgrass [9, 21]: 75
- Lambsquarters plant response rating [10, 16]: 100
- Lambsquarters plant response rating [10, 17]: 100
- Plant response rating, Lambsquarters [10, 18]: 100
- Plant response rating, Lambsquarters [10, 19]: 100
- Plant response rating (scale 0 to 100), Lambsquarters ([10]; Preemergence, 125 g ai/ha): 100
- Plant response rating, Lambsquarters [10, 20]: 70
- Plant response rating, Lambsquarters [10, 21]: 95
- Plant response rating, Lambsquarters [10, 22]: 90
- Blackgrass plant response rating [11, 16]: 20
- Blackgrass plant response rating [11, 17]: 35
- Plant response rating, Blackgrass [11, 18]: 60
- Plant response rating, Blackgrass [11, 19]: 55
- Plant response rating (scale 0 to 100), Blackgrass ([11]; Preemergence, 125 g ai/ha): 90
- Plant response rating, Blackgrass [11, 20]: 70
- Plant response rating, Blackgrass [11, 21]: 60
- Plant response rating, Blackgrass [11, 22]: 90
- Crabgrass, Large plant response rating [12, 16]: 30
- Crabgrass, Large plant response rating [12, 17]: 25
- Plant response rating, Crabgrass, Large [12, 18]: 35
- Plant response rating, Crabgrass, Large [12, 19]: 65
- Plant response rating (scale 0 to 100), Crabgrass, Large ([12]; Preemergence, 125 g ai/ha): 100
- Plant response rating, Crabgrass, Large [12, 20]: 98
- Plant response rating, Crabgrass, Large [12, 21]: 100
- Plant response rating, Crabgrass, Large [12, 22]: 100
- Plant response rating, Kochia [13, 23]: 90
- Plant response rating, Kochia [13, 24]: 80
- Plant response rating, Kochia [13, 25]: 90
- Plant response rating, Kochia ([13]; Preemergence, 125 g ai/ha, 0 to 100 scale where 0 is no effect and 100 is complete control): 90
- Plant response rating, Ragweed [14, 23]: 40
- Plant response rating, Ragweed [14, 24]: 10
- Plant response rating, Ragweed [14, 25]: 70
- Plant response rating, Ryegrass, Italian [15, 23]: 30
- Plant response rating, Ryegrass, Italian [15, 24]: 40
- Plant response rating, Ryegrass, Italian [15, 25]: 90
